# How the values were obtained:
# toad bladder [1] = settings: NEM pretreatment; cited from earlier work
# [2] = tested on: human erythroycte membrane; settings: NEM pretreatment; cited from earlier work
# ADH water channels = experiment: Proton permeability (PH+) of F-dextran loaded endocytic vesicles containing ADH water channels, stopped-flow fluorescence after imposed pH gradient; assay type: biochemical, Bufo marinus
# Source text: Endocytic vesicles from the bladder of Dominican toads were ADH stimulated and loaded with fluoroescein bound to dextran (F-dextran) following the procedures of Harris et.al., "Apical Membrane Vesicles of ADH-Stimulated Toad Bladder Are Highly Water Permeable,"Am. J. Physiol. In Press, (1989); Harris, H. W., et.al., "Fluorescent Markers to Study Membrane Retrieval in Antidiuretic Hormone-Treated Toad Urinary Bladder," Am. J. Physiol., 251:C274-C284 (1986). Briefly, the procedures were as follows.
# Dominican toads (Bufo marinus), obtained from National Reagents, Bridgeport, CT, were employed. Urinary bladders of Bufo marinus were prepared and mounted on cannulas as small sacs. After a 20 minute interval of ADH stimulation (50 mU/ml), the apical surfaces of bladders were exposed to solutions containing 50 mg/ml of F-dextran (Av. Mol. Wt. 70,000 Daltons) and […], 30 Mm KCl, and […], pH 8.0, for an interval of 5 minutes followed by termination of ADH stimulation and incubation for an additional 10 minutes. The solution containing the F-dextran was then removed, the bladders rinsed to remove all extracellular F-dextran. The intermediate pellet fraction obtained from centrifugation of the cell was used. F-dextran loaded vesicles were washed repeatedly to remove F-dextran and partially purified by differential centrifugation. In the absence of ADH, no detectable fluorescence was present in this vesicle fraction despite apical membrane exposure to F-dextran.
# Standard cuvette fluorescence measurements were performed using an SLM-Aminco 500C spectrofluorimeter (excitation wavelength 499 nm). Stopped-flow measurements were performed in a High Tech stopped-flow device (50 msec dead time) connected to a Photon Technologies Alphascan Fluorimeter. One syringe contained a concentrated vesicle suspension and antifluoroscein antibody while the other contained buffer with sufficient HCl to change the final extravesicular pH as indicated. Data from 3-5 determination performed on a single day were averages. Results were fitted to single exponentials and .tau. was converted to permeability using the following equation: […]
# where JH + is the flux rate of protons in mole/sec, PH + is the permeability coefficient of protons in cm/sec, ΔC is the concentration gradient for protons across the vesicle membrane at the start of the experiment in mole/cm^3, and A is the surface area of a single F-dextran containing vesicle (7.1×10^-10 cm^2). See Harris, H. W., et.al., "Isolation and Characterization of Specialized Regions of Toad Urinary Bladder Apical Plasma Membrane Involved in the Water Permeability Response to Antidiuretic Hormone," J. Memb. Biol., 96:175-186 (1987). Jh + was calculated by multiplying 1/.tau. by the amount of buffer (in moles) in an individual vesicle (single vesicle volume was 1.41×10^-14 cm^3). .tau. is the mathematical term representing the time for the process to be 2/3 completed. Estimates of vesicle volume and surface area were calculated from dimensions of vesicles loaded with horseradish peroxides (HRP) instead of F-dextran.
# The effect of pCMBS on the rate of pH change in F-dextran loaded vesicles was determined. The materials and procedures of Example 1 were employed, except as noted. […] The results are plotted in FIG. 3. As illustrated, preincubation of vesicles with pCMBS inhibited 54% of oH + in F-dextran loaded vesicles. Control pH + was 3.9±0.5×10^-3 cm/sec (n-5; p<0.005 compared to control; unpaired t test). […]
# toad bladder [3] = settings: cited from earlier work
structure (smiles),measurement,setting,value
"CCN1C(=O)C=CC1=O [NEM, n-ethylmaleimide]",inhibitory effect on water flux across the toad bladder,toad bladder [1],no inhibitory effect
same,inhibitory effect on water flux across human erythrocyte membrane,[2],no inhibitory effect
same,effect on pH + compared to control (significance),"ADH water channels; NEM 2 mM, 1 h pretreatment on ice",NS compared to control
same,pH + (proton permeability coefficient) after pretreatment,"ADH water channels; NEM 2 mM, pretreated 1 h in HEPES buffer on ice, paired control 5.6±0.2×10^-3",6.2±0.9×10^-3 cm/sec
O=C(CCc1ccc(O)cc1)c1c(O)cc(O)cc1O [Phloretin],effect on ADH-stimulated urea flux in toad bladder,toad bladder [3],inhibits
same,effect on apical membrane vesicle JH +,ADH water channels; phloretin 30 min prior to assay and present during stopped flow,without effect
same,PH + (proton permeability coefficient) of treated vesicles,"ADH water channels; vesicles exposed to phloretin 30 min prior to assay, stopped flow in continued presence, paired studies",2.6±0.4 ×10^-3 cm/sec
"O=S(=O)(O)c1cc[c]([Hg][Cl])cc1 [pCMBS, parachloromercuribenzene sulfonate]",inhibition of oH + (proton permeability) in F-dextran loaded vesicles,"ADH water channels; 1 mM pCMBS, one hour preincubation at 4° C., vesicles with 17.6 mM HEPES pH 8.0, extravesicular pH lowered to 6.0",54%
